The source of these data is US11407736B2 (priority 2019, dated 2022).

Read-outs that look alike come from different tables or passages of the source.

As usually defined, the IC50 is the point on the concentration scale where inhibition reaches its midpoint.

The target of one experiment is RIPK1 (Homo sapiens (Human), UniProt Q13546). The experiment is described as follows: RIPK1 ADP-Glo biochemical kinase assay. As to the method:
The final reaction volume was 5.0ul.
Adding 5 μl of ADP-Glo™ terminated the reaction.
In general terms: ADP-Glo turns the ADP formed in a reaction into a luminescent signal.

A further experiment has as its system L929 cells. The experiment is described as follows: L929 cell necroptosis assay (TNFa + zVAD, CellTiter-Glo). It counts as cell-based, murine. Particulars: Mus musculus. In a few lines: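 Murine L929 cells, plated 18 h beforehand at 10K cells/well in RPMI 1640 with 10% FBS, were switched to medium containing 40 uM zVAD-fmk and given compound from 4-fold serial dilutions. Viability after 18 h of TNFa stimulation at 37° C was read by CellTiter-Glo luminescence.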
(Cellular ATP, detected with luciferase, serves as a proxy for viable cell number.)

The next experiment deals with U937 cells. The experiment in a line: U937 cell necroptosis assay (TNFa + zVAD, CellTiter-Glo). It counts as cell-based, human. Particulars: Homo sapiens. In a few lines:
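Human U937 and murine L929 cells in RPMI 1640/10% FBS were pre-incubated 1 h at 37 °C with serially diluted compound plus zVAD-fmk (U937 plated with 60 uM, L929 medium with 40 uM), then stimulated with 2 ng/mL TNFa (final). Viability read by CellTiter-Glo luminescence after 18 h.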

Setting [1] is: read-out: RIPK1 ADP-Glo Kinase (IC50).
The mark [2] stands for this setting: L929, L929 cells, TNFa + zVAD, read-out: L929-CTG-recovery, L929, TNFa + zVAD (IC50).
Setting [3] is: U-937, U937 cells, TNFa + zVAD, read-out: U937 Zvad TNF CTG Recovery, U937, TNFa + zVAD (IC50).

Chain of RIPK1 (Q13546 whole entry, species assumed): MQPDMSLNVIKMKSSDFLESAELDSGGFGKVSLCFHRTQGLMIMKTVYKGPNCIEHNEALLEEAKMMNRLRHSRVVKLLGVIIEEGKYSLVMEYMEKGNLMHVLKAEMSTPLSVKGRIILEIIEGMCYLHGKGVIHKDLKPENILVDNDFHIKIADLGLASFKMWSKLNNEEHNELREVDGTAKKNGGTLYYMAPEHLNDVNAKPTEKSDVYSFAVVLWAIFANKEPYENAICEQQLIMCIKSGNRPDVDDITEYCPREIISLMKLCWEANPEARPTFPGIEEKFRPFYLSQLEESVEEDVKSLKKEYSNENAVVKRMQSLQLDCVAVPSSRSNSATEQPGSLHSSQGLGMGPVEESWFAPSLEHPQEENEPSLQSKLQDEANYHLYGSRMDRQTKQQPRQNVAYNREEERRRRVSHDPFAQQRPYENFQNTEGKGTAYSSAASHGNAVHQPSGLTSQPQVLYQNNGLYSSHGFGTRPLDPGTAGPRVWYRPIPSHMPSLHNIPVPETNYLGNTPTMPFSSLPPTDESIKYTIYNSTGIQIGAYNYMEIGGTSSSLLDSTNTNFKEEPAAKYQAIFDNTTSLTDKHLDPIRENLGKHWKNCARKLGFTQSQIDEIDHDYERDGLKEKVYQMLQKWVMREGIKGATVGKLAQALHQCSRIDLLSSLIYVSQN

For `Cc1cccc(C)c1Cn1cnc(C(=O)N[C@H]2COc3ccc(C#CC(C)(C)C)cc3N(C)C2=O)n1` [Compound I-90, (S)-1-(2,6-dimethylbenzyl)-N-(7-(3,3-dimethylbut-1-yn-1-yl)-5-methyl-4-oxo-2,3,4,5-tetrahydrobenzo[b][1,4]oxazepin-3-yl)-1H-1,2,4-triazole-3-carboxamide], the half-inhibitory concentration (IC50) on RIPK1 (setting [1]) is 365 nM; in the experiment with L929 cells (setting [2]) it was 4.6 nM; in the experiment on U937 cells (setting [3]), 9.1 nM.
Turning to `CN1C(=O)[C@@H](NC(=O)c2nnc(C3(c4ccccc4)CC3)o2)COc2ccc(N3CC4(CCOCC4)C3)cc21` [Compound I-235, (S)—N-(5-methyl-4-oxo-7-(7-oxa-2-azaspiro[3.5]nonan-2-yl)-2,3,4,5-tetrahydrobenzo[b][1,4]oxazepin-3-yl)-5-(1-phenylcyclopropyl)-1,3,4-oxadiazole-2-carboxamide], the half-maximal inhibitory concentration (IC50) on RIPK1 (setting [1]) is 62.1 nM; with L929 cells (L929 cells, TNFa + zVAD, read-out: L929-CTG-recovery, L929, TNFa + zVAD (IC50)) it was 1070 nM; in the experiment on U937 cells (setting [3]), 13.2 nM.
Take `CN1CCN(C(C)(C)C#Cc2ccc3c(c2)N(C)C(=O)[C@@H](NC(=O)c2cc(Oc4ccccc4)ccn2)CO3)CC1` [Compound I-158, (S)—N-(5-methyl-7-(3-methyl-3-(4-methylpiperazin-1-yl)but-1-yn-1-yl)-4-oxo-2,3,4,5-tetrahydrobenzo[b][1,4]oxazepin-3-yl)-4-phenoxypicolinamide]: the IC50 on RIPK1 is 14.7 nM; with L929 cells (setting [2]), 1640 nM; in the experiment with U937 cells (setting [3]), 9.5 nM.
As to `CCOC(=O)CCc1ccc2c(c1)N(C)C(=O)[C@@H](NC(=O)c1n[nH]c(Cc3ccccc3)n1)CO2` [Compound I-1, Ethyl (S)-3-(3-(5-benzyl-1H-1,2,4-triazole-3-carboxamido)-5-methyl-4-oxo-2,3,4,5-tetrahydrobenzo[b][1,4]oxazepin-7-yl)propanoate], the concentration for half-maximal inhibition (IC50) was 19 nM on RIPK1 (setting [1]), 2360 nM with L929 cells (setting [2]) and 2.7 nM in the experiment on U937 cells (setting [3]).
The like results for `CN1C(=O)[C@@H](NC(=O)c2cc(Cc3ccc(F)cc3)ccn2)COc2ccc(C#CC(C)(C)O)cc21` [Compound I-125, (S)-4-(4-fluorobenzyl)-N-(7-(3-hydroxy-3-methylbut-1-yn-1-yl)-5-methyl-4-oxo-2,3,4,5-tetrahydrobenzo[b][1,4]oxazepin-3-yl)picolinamide] were, in that order, 26.2 nM, 116 nM and 9.8 nM.
The like results for `CN1C(=O)[C@@H](NC(=O)c2cc(Cc3ccc(F)cc3)ccn2)COc2ccc(C#CC3(O)COC3)cc21` [Compound I-126, (S)-4-(4-fluorobenzyl)-N-(7-((3-hydroxyoxetan-3-yl)ethynyl)-5-methyl-4-oxo-2,3,4,5-tetrahydrobenzo[b][1,4]oxazepin-3-yl)picolinamide] were, in that order, 24.6 nM, 55.3 nM and 3.5 nM.
In the same order, the values of `CCOC(=O)CCc1ccc2c(c1)N(C)C(=O)[C@@H](NC(=O)c1ncn(Cc3ccccc3F)n1)CO2` [Compound I-5, Ethyl (S)-3-(3-(1-(2-fluorobenzyl)-1H-1,2,4-triazole-3-carboxamido)-5-methyl-4-oxo-2,3,4,5-tetrahydrobenzo[b][1,4]oxazepin-7-yl)propanoate] are 19.7 nM, 18.8 nM and 0.5 nM.
As to `CN1C(=O)[C@@H](NC(=O)c2cc(OC3CCCC3)ccn2)COc2ccc(C#CC3(O)COC3)cc21` [Compound I-157, (S)-4-(cyclopentyloxy)-N-(7-((3-hydroxyoxetan-3-yl)ethynyl)-5-methyl-4-oxo-2,3,4,5-tetrahydrobenzo[b][1,4]oxazepin-3-yl)picolinamide], the results for the IC50 at RIPK1 (setting [1]), in the experiment with L929 cells (setting [2]) and in the experiment on U937 cells (setting [3]) were 31.6 nM, 5160 nM and 25.5 nM, respectively.
Consider `CCN1C(=O)[C@@H](NC(=O)c2n[nH]c(Cc3cccc(F)c3)n2)COc2ccc(C#CC(C)(C)O)cc21` [Compound I-92, (S)—N-(5-ethyl-7-(3-hydroxy-3-methylbut-1-yn-1-yl)-4-oxo-2,3,4,5-tetrahydrobenzo[b][1,4]oxazepin-3-yl)-5-(3-fluorobenzyl)-1H-1,2,4-triazole-3-carboxamide], for which the IC50 on RIPK1 (setting [1]) amounted to 932 nM; in the experiment on L929 cells (setting [2]) it was 430 nM; in the experiment with U937 cells (setting [3]) it was 4840 nM.
On to `CN1C(=O)[C@@H](NC(=O)c2n[nH]c(Cc3ccccc3)n2)COc2ccc(CCC(=O)N3CCCC3)cc21` [Compound I-10, (S)-5-benzyl-N-(5-methyl-4-oxo-7-(3-oxo-3-(pyrrolidin-1-yl)propyl)-2,3,4,5-tetrahydrobenzo[b][1,4]oxazepin-3-yl)-1H-1,2,4-triazole-3-carboxamide], for which the results for the IC50 at RIPK1 (setting [1]), with L929 cells (setting [2]) and in the experiment on U937 cells (setting [3]) were 42.9 nM, 11200 nM and 7.9 nM, respectively.
Regarding `CN1C(=O)[C@@H](NC(=O)c2n[nH]c(Cc3ccccc3)n2)COc2cc(C#CC(C)(C)O)ccc21` [Compound I-63, (S)-5-benzyl-N-(8-(3-hydroxy-3-methylbut-1-yn-1-yl)-5-methyl-4-oxo-2,3,4,5-tetrahydrobenzo[b][1,4]oxazepin-3-yl)-1H-1,2,4-triazole-3-carboxamide], the half-inhibitory concentration (IC50) at RIPK1 (setting [1]) is 30.3 nM; with L929 cells (setting [2]), 0.3 nM; in the experiment on U937 cells (setting [3]) it was 1 nM.
As to `CN1C(=O)[C@@H](NC(=O)c2cc(Oc3ccccc3)ccn2)COc2ccc(C#CC(C)(C)COC(=O)CCC(=O)O)cc21` [Compound I-144, (S)-4-((2,2-dimethyl-4-(5-methyl-4-oxo-3-(4-phenoxypicolinamido)-2,3,4,5-tetrahydrobenzo[b][1,4]oxazepin-7-yl)but-3-yn-1-yl)oxy)-4-oxobutanoic acid], the half-inhibitory concentration (IC50) on RIPK1 (setting [1]) is 22 nM; in the experiment on L929 cells (setting [2]) it was 156 nM; in the experiment on U937 cells (setting [3]), 1.2 nM.
`CN1C(=O)[C@@H](NC(=O)c2n[nH]c(Cc3ccccc3)n2)COc2ccc(C#CCCOc3ccc4cccnc4c3)cc21` [Compound I-41, (S)-5-benzyl-N-(5-methyl-4-oxo-7-(4-(quinolin-7-yloxy)but-1-yn-1-yl)-2,3,4,5-tetrahydrobenzo[b][1,4]oxazepin-3-yl)-1H-1,2,4-triazole-3-carboxamide]: the 50% inhibitory concentration (IC50) on RIPK1 (setting [1]) worked out at 80 nM; with L929 cells (setting [2]) it was 1.6 nM; in the experiment with U937 cells (setting [3]), 5.2 nM.
Consider `CN1C(=O)[C@@H](NC(=O)c2cc(Oc3ccc(C#N)cc3)ccn2)COc2ccc(C#CC3(O)COC3)cc21` [II-19, (S)-4-(4-cyanophenoxy)-N-(7-((3-hydroxyoxetan-3-yl)ethynyl)-5-methyl-4-oxo-2,3,4,5-tetrahydrobenzo[b][1,4]oxazepin-3-yl)picolinamide], for which the IC50 on RIPK1 (setting [1]) was found to be 34.9 nM; with L929 cells (L929, read-out: L929-CTG-recovery, L929, TNFa + zVAD (IC50), L929 cells, TNFa + zVAD) it was 2890 nM; in the experiment with U937 cells (U-937, read-out: U937 Zvad TNF CTG Recovery, U937, TNFa + zVAD (IC50), U937 cells, TNFa + zVAD), 55.5 nM.
Consider `CN1C(=O)[C@@H](NC(=O)c2n[nH]c(Cc3ccccc3)n2)COc2ccc(CCCO)cc21` [Compound I-14, (S)-5-benzyl-N-(7-(3-hydroxypropyl)-5-methyl-4-oxo-2,3,4,5-tetrahydrobenzo[b][1,4]oxazepin-3-yl)-1H-1,2,4-triazole-3-carboxamide], for which the figures for the IC50 on RIPK1 (setting [1]), with L929 cells (setting [2]) and in the experiment with U937 cells (setting [3]) were 73 nM, 5880 nM and 11.4 nM, respectively.
The like results for `CN1C(=O)[C@@H](NC(=O)c2ncn(Cc3ccccc3)n2)COc2ccc(CCC(=O)N3CCCC3)cc21` [Compound I-33, (S)-1-benzyl-N-(5-methyl-4-oxo-7-(3-oxo-3-(pyrrolidin-1-yl)propyl)-2,3,4,5-tetrahydrobenzo[b][1,4]oxazepin-3-yl)-1H-1,2,4-triazole-3-carboxamide] were, in that order, 14.5 nM, 1230 nM and 1.5 nM.
In the same order, the values of `CN1C(=O)[C@@H](NC(=O)c2cc(Oc3ccc(F)cc3)ccn2)COc2ccc(C#CC(C)(C)C)cc21` [Compound I-101, (S)—N-(7-(3,3-dimethylbut-1-yn-1-yl)-5-methyl-4-oxo-2,3,4,5-tetrahydrobenzo[b][1,4]oxazepin-3-yl)-4-(4-fluorophenoxy)picolinamide] are 133 nM, 668 nM and 36.3 nM.
Regarding `CN1C(=O)[C@@H](NC(=O)c2n[nH]c(Cc3ccccc3)n2)COc2cc(CN3CCn4nc(C(F)(F)F)nc4C3)ccc21` [Compound I-66, (S)-5-benzyl-N-(5-methyl-4-oxo-8-((2-(trifluoromethyl)-5,6-dihydro-[1,2,4]triazolo[1,5-a]pyrazin-7(8H)-yl)methyl)-2,3,4,5-tetrahydrobenzo[b][1,4]oxazepin-3-yl)-1H-1,2,4-triazole-3-carboxamide], the IC50 at RIPK1 (setting [1]) worked out at 79.4 nM; in the experiment on L929 cells (setting [2]) it was 94.9 nM; in the experiment on U937 cells (setting [3]) it was 189 nM.
Consider `CN1C(=O)[C@@H](NC(=O)n2cc(Cc3ccc(F)cc3)cn2)COc2ccc(C#CC3(O)CCOCC3)cc21` [Compound I-175, (S)-4-(4-fluorobenzyl)-N-(7-((4-hydroxytetrahydro-2H-pyran-4-yl)ethynyl)-5-methyl-4-oxo-2,3,4,5-tetrahydrobenzo[b][1,4]oxazepin-3-yl)-1H-pyrazole-1-carboxamide], for which the IC50 on RIPK1 (setting [1]) was determined as 27.8 nM; in the experiment on L929 cells (setting [2]), 107 nM; in the experiment with U937 cells (setting [3]), 9 nM.
